Results: PubChem BioAssay (NCI)
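Cells were grown in 96-well plates and exposed to each compound for 48 hours at five concentrations; endpoints were interpolated linearly between bracketing concentrations, or set to the highest concentration if not reached. TGI: total growth inhibition.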

The compounds below were run on OVCAR-4 ovarian (assay: growth of human tumour cells (NCI), 48 h).

| SMILES | TGI [µM] |
| --- | --- |
| O=C1C2CC=CCC2C(=O)N1n1c(Cc2ccc(Cl)cc2)n[nH]c1=O (centres undefined) | > 100 |
| N#Cc1c(-c2ccc(Cl)cc2)c2c([nH]c1=O)-c1ccccc1SC2 | > 100 |

Each compound was assayed on COLO 205 colon (assay: growth of human tumour cells (NCI), 48 h).

| SMILES | TGI [µM] |
| --- | --- |
| C=C1C(=O)C[C@H]2C(=C)C(=O)O[C@@H]2C2C1CC[C@@]2(C)O (some centres undefined) | 54.8 |
| O=C(NC(Cc1c[nH]c2ccccc12)C(=O)Nc1ccc(Br)cc1)OCc1ccccc1 (centres undefined) | 24.7 |
| COC(=O)C1=C(C)NC2=C(C(=O)c3ccccc32)C1c1cn(-c2ccccc2)nc1-c1ccccc1 (centres undefined) | > 100 |
| Cc1cc(C)n2nc3nc(N)c(C#N)c(-c4ccccc4)c3c2n1 | > 100 |
| CCCCCCCCCC1(N=[N+]=[N-])C(=O)c2ccccc2N(C)C1=O (centres undefined) | > 100 |
| CN(Cc1cnc2nc(N)nc(N)c2n1)c1ccc(C(=O)NC(CCC(=O)NCCC(P(=O)(O)O)P(=O)(O)O)C(=O)O)cc1 (centres undefined) | > 100 |
| C[N+](CCCl)(CCCl)Cc1cccc2cccc([N+](=O)[O-])c12 | > 100 |
| O=C1NC(=O)C(c2c[nH]c3ccccc23)=C1c1cnc[nH]1 | > 100 |
| CC(=O)O[C@H]1C[C@H]2[C@@H](OC(C)=O)/C=C3\C[C@](C)(C(=O)[C@H](O)C(=C1C)C2(C)C)[C@@H](O)C[C@@H]3OC(=O)[C@H](O)[C@H](c1ccccc1)N(C)C | > 100 |
| Nc1ncnc2c1ccn2C/C=C\CO | > 100 |
| Cc1c([N+](=O)[O-])ccc2c(NCCCN(C)C)ccnc12 | 24.7 |
| N#Cc1nc2ccccc2nc1N1CCN(c2ccc([N+](=O)[O-])cc2)CC1 | > 100 |
| N=C1/C(=C/c2ccc(F)cc2)C(=O)N=C2SC=NN12 | > 100 |
| COC(=O)CC(C#N)(OP1(=O)OC(c2ccccc2)C(C)N1C)c1ccccc1 (centres undefined) | > 100 |
| CN1CCN(C(=O)CCNC(=O)Cc2ccc(C(=O)c3ccccc3)cc2)CC1 | > 100 |
| CC(=O)c1cccc(NC(=O)C(=O)NNc2n[nH]c(=S)n2N)c1 | 27.9 |
| O=c1cc(N2CCOCC2)[nH]c(=O)n1-c1ccc(F)cc1 | > 100 |
| O=C(O)CC1NC(/C(=C/c2ccccc2)NC(=O)c2ccccc2)OC1=O (centres undefined) | 40.6 |
| COCC1OC(Sc2ccccc2)C(O)C(OC)C1OC (centres undefined) | > 100 |
| CCCn1c2ccccc2c2ccc3c(c21)C(=O)C=CC3=O | 5.17 |
| C=C(CCC/C(C)=C/C=C/[C@]1(C)CCCc2ccoc21)CC(=O)O | > 100 |
| O=C1C2CC=CCC2C(=O)N1n1c(Cc2ccc(Cl)cc2)n[nH]c1=O (centres undefined) | > 100 |
| N#Cc1c(-c2ccc(Cl)cc2)c2c([nH]c1=O)-c1ccccc1SC2 | 50.3 |

What follows are compounds tested on A549 NSCLC (assay: growth of human tumour cells (NCI), 48 h).

| SMILES | TGI [µM] |
| --- | --- |
| C=C1C(=O)C[C@H]2C(=C)C(=O)O[C@@H]2C2C1CC[C@@]2(C)O (some centres undefined) | > 100 |
| O=C(NC(Cc1c[nH]c2ccccc12)C(=O)Nc1ccc(Br)cc1)OCc1ccccc1 (centres undefined) | > 100 |
| COC(=O)C1=C(C)NC2=C(C(=O)c3ccccc32)C1c1cn(-c2ccccc2)nc1-c1ccccc1 (centres undefined) | > 100 |
| Cc1cc(C)n2nc3nc(N)c(C#N)c(-c4ccccc4)c3c2n1 | > 100 |
| CCCCCCCCCC1(N=[N+]=[N-])C(=O)c2ccccc2N(C)C1=O (centres undefined) | 95.1 |
| CN(Cc1cnc2nc(N)nc(N)c2n1)c1ccc(C(=O)NC(CCC(=O)NCCC(P(=O)(O)O)P(=O)(O)O)C(=O)O)cc1 (centres undefined) | > 100 |
| C[N+](CCCl)(CCCl)Cc1cccc2cccc([N+](=O)[O-])c12 | > 100 |
| O=C1NC(=O)C(c2c[nH]c3ccccc23)=C1c1cnc[nH]1 | > 100 |
| CC(=O)O[C@H]1C[C@H]2[C@@H](OC(C)=O)/C=C3\C[C@](C)(C(=O)[C@H](O)C(=C1C)C2(C)C)[C@@H](O)C[C@@H]3OC(=O)[C@H](O)[C@H](c1ccccc1)N(C)C | > 100 |
| Nc1ncnc2c1ccn2C/C=C\CO | > 100 |
| Cc1c([N+](=O)[O-])ccc2c(NCCCN(C)C)ccnc12 | 40.5 |
| N#Cc1nc2ccccc2nc1N1CCN(c2ccc([N+](=O)[O-])cc2)CC1 | > 100 |
| N=C1/C(=C/c2ccc(F)cc2)C(=O)N=C2SC=NN12 | > 100 |
| COC(=O)CC(C#N)(OP1(=O)OC(c2ccccc2)C(C)N1C)c1ccccc1 (centres undefined) | > 100 |
| CN1CCN(C(=O)CCNC(=O)Cc2ccc(C(=O)c3ccccc3)cc2)CC1 | > 100 |
| CC(=O)c1cccc(NC(=O)C(=O)NNc2n[nH]c(=S)n2N)c1 | 14.5 |
| O=C(O)CC1NC(/C(=C/c2ccccc2)NC(=O)c2ccccc2)OC1=O (centres undefined) | > 100 |
| COCC1OC(Sc2ccccc2)C(O)C(OC)C1OC (centres undefined) | > 100 |
| CCCn1c2ccccc2c2ccc3c(c21)C(=O)C=CC3=O | > 10 |
| C=C(CCC/C(C)=C/C=C/[C@]1(C)CCCc2ccoc21)CC(=O)O | > 100 |
| O=C1C2CC=CCC2C(=O)N1n1c(Cc2ccc(Cl)cc2)n[nH]c1=O (centres undefined) | > 100 |
| N#Cc1c(-c2ccc(Cl)cc2)c2c([nH]c1=O)-c1ccccc1SC2 | > 100 |

The compounds below were run on NCI-H460 lung (assay: growth of human tumour cells (NCI), 48 h).

| SMILES | TGI [µM] |
| --- | --- |
| C=C1C(=O)C[C@H]2C(=C)C(=O)O[C@@H]2C2C1CC[C@@]2(C)O (some centres undefined) | 43.1 |
| O=C(NC(Cc1c[nH]c2ccccc12)C(=O)Nc1ccc(Br)cc1)OCc1ccccc1 (centres undefined) | 20.1 |
| Cc1cc(C)n2nc3nc(N)c(C#N)c(-c4ccccc4)c3c2n1 | > 100 |
| CCCCCCCCCC1(N=[N+]=[N-])C(=O)c2ccccc2N(C)C1=O (centres undefined) | > 100 |
| CN(Cc1cnc2nc(N)nc(N)c2n1)c1ccc(C(=O)NC(CCC(=O)NCCC(P(=O)(O)O)P(=O)(O)O)C(=O)O)cc1 (centres undefined) | > 100 |
| C[N+](CCCl)(CCCl)Cc1cccc2cccc([N+](=O)[O-])c12 | > 100 |
| O=C1NC(=O)C(c2c[nH]c3ccccc23)=C1c1cnc[nH]1 | > 100 |
| CC(=O)O[C@H]1C[C@H]2[C@@H](OC(C)=O)/C=C3\C[C@](C)(C(=O)[C@H](O)C(=C1C)C2(C)C)[C@@H](O)C[C@@H]3OC(=O)[C@H](O)[C@H](c1ccccc1)N(C)C | > 100 |
| Nc1ncnc2c1ccn2C/C=C\CO | > 100 |
| Cc1c([N+](=O)[O-])ccc2c(NCCCN(C)C)ccnc12 | 33.2 |
| N#Cc1nc2ccccc2nc1N1CCN(c2ccc([N+](=O)[O-])cc2)CC1 | > 100 |
| N=C1/C(=C/c2ccc(F)cc2)C(=O)N=C2SC=NN12 | > 100 |
| COC(=O)CC(C#N)(OP1(=O)OC(c2ccccc2)C(C)N1C)c1ccccc1 (centres undefined) | 44.4 |
| CN1CCN(C(=O)CCNC(=O)Cc2ccc(C(=O)c3ccccc3)cc2)CC1 | > 100 |
| CC(=O)c1cccc(NC(=O)C(=O)NNc2n[nH]c(=S)n2N)c1 | 13.3 |
| O=c1cc(N2CCOCC2)[nH]c(=O)n1-c1ccc(F)cc1 | > 100 |
| O=C(O)CC1NC(/C(=C/c2ccccc2)NC(=O)c2ccccc2)OC1=O (centres undefined) | 69.6 |
| COCC1OC(Sc2ccccc2)C(O)C(OC)C1OC (centres undefined) | > 100 |
| CCCn1c2ccccc2c2ccc3c(c21)C(=O)C=CC3=O | > 10 |
| C=C(CCC/C(C)=C/C=C/[C@]1(C)CCCc2ccoc21)CC(=O)O | > 100 |
| N#Cc1c(-c2ccc(Cl)cc2)c2c([nH]c1=O)-c1ccccc1SC2 | > 100 |

What follows are compounds tested on RXF 393 renal (assay: growth of human tumour cells (NCI), 48 h).

| SMILES | TGI [µM] |
| --- | --- |
| C=C1C(=O)C[C@H]2C(=C)C(=O)O[C@@H]2C2C1CC[C@@]2(C)O (some centres undefined) | 43.9 |
| O=C(NC(Cc1c[nH]c2ccccc12)C(=O)Nc1ccc(Br)cc1)OCc1ccccc1 (centres undefined) | 22.2 |
| COC(=O)C1=C(C)NC2=C(C(=O)c3ccccc32)C1c1cn(-c2ccccc2)nc1-c1ccccc1 (centres undefined) | > 100 |
| Cc1cc(C)n2nc3nc(N)c(C#N)c(-c4ccccc4)c3c2n1 | > 100 |
| CCCCCCCCCC1(N=[N+]=[N-])C(=O)c2ccccc2N(C)C1=O (centres undefined) | 55.3 |
| CN(Cc1cnc2nc(N)nc(N)c2n1)c1ccc(C(=O)NC(CCC(=O)NCCC(P(=O)(O)O)P(=O)(O)O)C(=O)O)cc1 (centres undefined) | > 100 |
| C[N+](CCCl)(CCCl)Cc1cccc2cccc([N+](=O)[O-])c12 | > 100 |
| O=C1NC(=O)C(c2c[nH]c3ccccc23)=C1c1cnc[nH]1 | > 100 |
| CC(=O)O[C@H]1C[C@H]2[C@@H](OC(C)=O)/C=C3\C[C@](C)(C(=O)[C@H](O)C(=C1C)C2(C)C)[C@@H](O)C[C@@H]3OC(=O)[C@H](O)[C@H](c1ccccc1)N(C)C | > 100 |
| Nc1ncnc2c1ccn2C/C=C\CO | > 100 |
| Cc1c([N+](=O)[O-])ccc2c(NCCCN(C)C)ccnc12 | 60.8 |
| N#Cc1nc2ccccc2nc1N1CCN(c2ccc([N+](=O)[O-])cc2)CC1 | > 100 |
| N=C1/C(=C/c2ccc(F)cc2)C(=O)N=C2SC=NN12 | > 100 |
| COC(=O)CC(C#N)(OP1(=O)OC(c2ccccc2)C(C)N1C)c1ccccc1 (centres undefined) | 52.3 |
| CN1CCN(C(=O)CCNC(=O)Cc2ccc(C(=O)c3ccccc3)cc2)CC1 | > 100 |
| CC(=O)c1cccc(NC(=O)C(=O)NNc2n[nH]c(=S)n2N)c1 | 24.1 |
| O=c1cc(N2CCOCC2)[nH]c(=O)n1-c1ccc(F)cc1 | > 100 |
| O=C(O)CC1NC(/C(=C/c2ccccc2)NC(=O)c2ccccc2)OC1=O (centres undefined) | > 100 |
| COCC1OC(Sc2ccccc2)C(O)C(OC)C1OC (centres undefined) | > 100 |
| CCCn1c2ccccc2c2ccc3c(c21)C(=O)C=CC3=O | 3.87 |
| C=C(CCC/C(C)=C/C=C/[C@]1(C)CCCc2ccoc21)CC(=O)O | > 100 |
| O=C1C2CC=CCC2C(=O)N1n1c(Cc2ccc(Cl)cc2)n[nH]c1=O (centres undefined) | > 100 |
| N#Cc1c(-c2ccc(Cl)cc2)c2c([nH]c1=O)-c1ccccc1SC2 | 77.4 |

Each compound was assayed on BT-549 breast (assay: growth of human tumour cells (NCI), 48 h).

| SMILES | TGI [µM] |
| --- | --- |
| C=C1C(=O)C[C@H]2C(=C)C(=O)O[C@@H]2C2C1CC[C@@]2(C)O (some centres undefined) | 44 |
| O=C(NC(Cc1c[nH]c2ccccc12)C(=O)Nc1ccc(Br)cc1)OCc1ccccc1 (centres undefined) | 29.8 |
| COC(=O)C1=C(C)NC2=C(C(=O)c3ccccc32)C1c1cn(-c2ccccc2)nc1-c1ccccc1 (centres undefined) | > 100 |
| Cc1cc(C)n2nc3nc(N)c(C#N)c(-c4ccccc4)c3c2n1 | > 100 |
| CCCCCCCCCC1(N=[N+]=[N-])C(=O)c2ccccc2N(C)C1=O (centres undefined) | 74.6 |
| CN(Cc1cnc2nc(N)nc(N)c2n1)c1ccc(C(=O)NC(CCC(=O)NCCC(P(=O)(O)O)P(=O)(O)O)C(=O)O)cc1 (centres undefined) | > 100 |
| C[N+](CCCl)(CCCl)Cc1cccc2cccc([N+](=O)[O-])c12 | > 100 |
| O=C1NC(=O)C(c2c[nH]c3ccccc23)=C1c1cnc[nH]1 | > 100 |
| CC(=O)O[C@H]1C[C@H]2[C@@H](OC(C)=O)/C=C3\C[C@](C)(C(=O)[C@H](O)C(=C1C)C2(C)C)[C@@H](O)C[C@@H]3OC(=O)[C@H](O)[C@H](c1ccccc1)N(C)C | > 100 |
| Nc1ncnc2c1ccn2C/C=C\CO | > 100 |
| Cc1c([N+](=O)[O-])ccc2c(NCCCN(C)C)ccnc12 | 36.2 |
| N#Cc1nc2ccccc2nc1N1CCN(c2ccc([N+](=O)[O-])cc2)CC1 | > 100 |
| N=C1/C(=C/c2ccc(F)cc2)C(=O)N=C2SC=NN12 | > 100 |
| COC(=O)CC(C#N)(OP1(=O)OC(c2ccccc2)C(C)N1C)c1ccccc1 (centres undefined) | > 100 |
| CN1CCN(C(=O)CCNC(=O)Cc2ccc(C(=O)c3ccccc3)cc2)CC1 | > 100 |
| CC(=O)c1cccc(NC(=O)C(=O)NNc2n[nH]c(=S)n2N)c1 | 6.65 |
| O=c1cc(N2CCOCC2)[nH]c(=O)n1-c1ccc(F)cc1 | > 100 |
| O=C(O)CC1NC(/C(=C/c2ccccc2)NC(=O)c2ccccc2)OC1=O (centres undefined) | 44.2 |
| COCC1OC(Sc2ccccc2)C(O)C(OC)C1OC (centres undefined) | > 100 |
| CCCn1c2ccccc2c2ccc3c(c21)C(=O)C=CC3=O | 4.9 |
| C=C(CCC/C(C)=C/C=C/[C@]1(C)CCCc2ccoc21)CC(=O)O | > 100 |
| O=C1C2CC=CCC2C(=O)N1n1c(Cc2ccc(Cl)cc2)n[nH]c1=O (centres undefined) | > 100 |
| N#Cc1c(-c2ccc(Cl)cc2)c2c([nH]c1=O)-c1ccccc1SC2 | > 100 |
